Consider 19 compounds from PubChem BioAssay AID298 (DTP/NCI, 2004).

Values joined by “and” are separate entries in the source; they are usually repeats but may differ in a detail not shown here. Identical values can stand only once. Inconclusive results are not listed.

This test concerns MX-1 breast xenograft, intrarenal, nude mice, tumor weight. The test is described as follows: NCI In Vivo Anticancer Drug Screen. Data for tumor model Human Mammary Carcinoma MX-1 Xenograft (intrarenal inoculation) in NU/NU BALB/C (nude) mice. The settings on record: endpoint: mean tumor weight change, higher = larger tumour. The protocol:
The antitumor activity of compounds was measured in mice bearing transplantable tumors. Survival or tumor size were measured and the results are expressed as the measurement made in the treated group (T) divided by the measurement made in the vehicle treated control group (C). The tumor model used in this assay is Human Mammary Carcinoma MX-1 Xenograft (intrarenal inoculation) in NU/NU BALB/C (nude) mice
(A xenograft is tissue or cells of one species grown in another, often human tumour cells in immunodeficient mice.)

Where [1] appears, read: dose: 600.0 mg/kg/injection, schedule: Q04DX003 (sc), vehicle: saline with Tween-80.
Setting [2] is: dose: 300.0 mg/kg/injection, schedule: Q04DX003 (sc), vehicle: saline.

With `COc1ccc(C=C(C(=O)CCN(C)C)C(=O)CCN(C)C)cc1`, the T/C reads like this: (dose: 50.0 mg/kg/injection, schedule: Q04DX003 (ip), vehicle: saline) 93 % of control; (dose: 100.0 mg/kg/injection, schedule: Q04DX003 (ip), vehicle: saline) 101 % of control; (dose: 200.0 mg/kg/injection, schedule: Q04DX003 (ip), vehicle: saline) 96 % of control.

As to `Cc1ccc(NN=O)nc1`, the T/C is, setting by setting: (dose: 9.35 mg/kg/injection, schedule: Q04DX003 (ip), vehicle: water) 11 % of control; (dose: 9.37 mg/kg/injection, schedule: Q04DX003 (ip), vehicle: water) -9 % of control; (dose: 18.7 mg/kg/injection, schedule: Q04DX003 (ip), vehicle: water) 6 % of control; (dose: 18.75 mg/kg/injection, schedule: Q04DX003 (ip), vehicle: water) -21 % of control; (dose: 37.5 mg/kg/injection, schedule: Q04DX003 (ip), vehicle: water) -69 % of control.

For `CC1(O)C=CC(=O)C=C1`, the T/C reads like this: (dose: 25.0 mg/kg/injection, schedule: Q04DX003 (ip), vehicle: water) 96 % of control; (dose: 50.0 mg/kg/injection, schedule: Q04DX003 (ip), vehicle: water) 64 % of control.

Consider `CCN(CC)CC(=O)O[C@]1(CC)C(=O)OCc2c1cc1n(c2=O)Cc2cc3ccccc3nc2-1`, for which the T/C by setting is: (dose: 2.0 mg/kg/injection, schedule: Q04DX003 (ip), vehicle: other) 35 % of control; (dose: 2.0 mg/kg/injection, schedule: Q04DX003 (ip), vehicle: water) 29 % of control; (dose: 4.0 mg/kg/injection, schedule: Q04DX003 (ip), vehicle: other) 19 % of control; (dose: 4.0 mg/kg/injection, schedule: Q04DX003 (ip), vehicle: water) 13 % of control; (dose: 8.0 mg/kg/injection, schedule: Q04DX003 (ip), vehicle: other) 1 % of control; (dose: 16.0 mg/kg/injection, schedule: Q04DX003 (ip), vehicle: other) -56 % of control. Besides, the T/C (dose: 16.0 mg/kg/injection, schedule: Q04DX003 (ip), vehicle: water) is -100 % of control.

Take `O=C(CCCCCCC(=O)ON1C(=O)CCC1=O)ON1C(=O)CCC1=O`: the T/C is, setting by setting: (dose: 300.0 mg/kg/injection, schedule: Q04DX003 (sc), vehicle: saline with Tween-80) 110 % of control; under setting [1], 96 % of control; (dose: 1200.0 mg/kg/injection, schedule: Q04DX003 (sc), vehicle: saline with Tween-80) 81 % of control; (dose: 2400.0 mg/kg/injection, schedule: Q04DX003 (sc), vehicle: saline with Tween-80) 85 % of control.

Turning to `CN(C)[C@@H]1C(=O)C(C(N)=O)=C(O)[C@@]2(O)C(=O)C3=C(O)c4c(O)ccc(Cl)c4[C@@](C)(O)[C@H]3C[C@@H]12`, the T/C runs as follows: under setting [2], 155 % of control; (dose: 1200.0 mg/kg/injection, schedule: Q04DX003 (sc), vehicle: saline) 113 % of control; (dose: 2400.0 mg/kg/injection, schedule: Q04DX003 (sc), vehicle: saline) 70 % of control.

`COc1ccc([C@@]23Oc4cc(OC)cc(OC)c4[C@]2(O)[C@H](O)[C@H](C(=O)N(C)C)[C@H]3c2ccccc2)cc1`: the T/C runs as follows: (dose: 2.0 mg/kg/injection, schedule: Q04DX003 (ip), vehicle: Klucel (hydroxypropylcellulose) (HPC)) 92 % of control; (dose: 4.0 mg/kg/injection, schedule: Q04DX003 (ip), vehicle: Klucel (hydroxypropylcellulose) (HPC)) 79 % of control; (dose: 8.0 mg/kg/injection, schedule: Q04DX003 (ip), vehicle: Klucel (hydroxypropylcellulose) (HPC)) 79 % of control; (dose: 16.0 mg/kg/injection, schedule: Q04DX003 (ip), vehicle: Klucel (hydroxypropylcellulose) (HPC)) 88 % of control.

As to `OC1OC2COC(c3ccccc3)OC2C(O)C1O` (stereo not drawn), the T/C was 57 % of control (dose: 300.0 mg/kg/injection, schedule: Q04DX003 (sc), vehicle: water); 91 % of control (dose: 600.0 mg/kg/injection, schedule: Q04DX003 (sc), vehicle: water); 91 % of control (dose: 1200.0 mg/kg/injection, schedule: Q04DX003 (sc), vehicle: water); 105 % of control (dose: 2400.0 mg/kg/injection, schedule: Q04DX003 (sc), vehicle: water).

Regarding `CC(/C=C/C1OC(=O)C=CC1C)=C\C(C)C/C=C/C(C)=C/C(C)C(=O)C(C)C(O)C(C)C/C(C)=C/C(=O)O` (stereo not drawn), the T/C was 104 % of control (dose: 50.0 micrograms/kg/injection, schedule: Q04DX003 (ip), vehicle: alcohol); 87 % of control (dose: 100.0 micrograms/kg/injection, schedule: Q04DX003 (ip), vehicle: alcohol); 81 % of control (dose: 200.0 micrograms/kg/injection, schedule: Q04DX003 (ip), vehicle: alcohol); 111 % of control (dose: 400.0 micrograms/kg/injection, schedule: Q04DX003 (ip), vehicle: alcohol).

Consider `COC(=O)Nc1nc2ccc(C3(c4ccc(F)cc4)OCCO3)cc2[nH]1`, for which the T/C under setting [1] was 190 % of control.

For `CN=S(=O)(OCCCCCOS(=O)(=NC)c1ccc(C)cc1)c1ccc(C)cc1` (stereo not drawn), the T/C is, setting by setting: (dose: 75.0 mg/kg/injection, schedule: Q04DX003 (sc), vehicle: saline with Tween-80) 86 % of control; (dose: 150.0 mg/kg/injection, schedule: Q04DX003 (sc), vehicle: saline with Tween-80) 61 % of control.

With `CCCCCCCCCCCCCCCCP(=O)(OCCOCCCCCC)OCCOCCCCCC`, the T/C was 102 % of control (dose: 150.0 mg/kg/injection, schedule: Q04DX003 (sc), vehicle: saline); 97 % of control under setting [2]; 70 % of control (dose: 600.0 mg/kg/injection, schedule: Q04DX003 (sc), vehicle: saline).

Consider `O=CC(O)C(O)C(O)C(O)CO` (stereo not drawn), for which the T/C by setting is: (dose: 75.0 mg/kg/injection, schedule: Q04DX003 (ip), vehicle: saline) 72 % of control; (dose: 150.0 mg/kg/injection, schedule: Q04DX003 (ip), vehicle: saline) 113 % of control; (dose: 300.0 mg/kg/injection, schedule: Q04DX003 (ip), vehicle: saline) 65 % of control; (dose: 600.0 mg/kg/injection, schedule: Q04DX003 (ip), vehicle: saline) 93 % of control; (dose: 1200.0 mg/kg/injection, schedule: Q04DX003 (ip), vehicle: saline) 59 % of control.

Turning to `CC(=O)OCC1OC([S-])C(OC(C)=O)C(OC(C)=O)C1OC(C)=O.CC[PH+](CC)CC.CC[PH+](CC)CC.[Au].[Au]` (stereo not drawn), the T/C is 110 % of control (dose: 3.13 mg/kg/injection, schedule: Q04DX003 (ip), vehicle: Klucel (hydroxypropylcellulose) (HPC)) and 73 % of control (dose: 12.5 mg/kg/injection, schedule: Q04DX003 (ip), vehicle: Klucel (hydroxypropylcellulose) (HPC)).

As for `CO[C@@]12[C@@H]3N[C@@H]3CN1C1=C(C(=O)C(N3CCCC3)=C(C)C1=O)[C@@H]2COC(N)=O`, the T/C is, setting by setting: (dose: 1.5 mg/kg/injection, schedule: Q04DX003 (ip), vehicle: saline with Tween-80) 6 % of control and 12 % of control; (dose: 12.0 mg/kg/injection, schedule: Q04DX003 (ip), vehicle: saline with Tween-80) -98 % of control.

Consider `O=c1c(O)c(-c2cc(O)c(O)c(O)c2)oc2cc(O)cc(O)c12`, for which the T/C is, setting by setting: (dose: 50.0 mg/kg/injection, schedule: Q04DX003 (sc), vehicle: saline with Tween-80) 95 % of control; (dose: 100.0 mg/kg/injection, schedule: Q04DX003 (sc), vehicle: saline with Tween-80) 111 % of control; (dose: 200.0 mg/kg/injection, schedule: Q04DX003 (sc), vehicle: saline with Tween-80) 115 % of control; (dose: 400.0 mg/kg/injection, schedule: Q04DX003 (sc), vehicle: saline with Tween-80) 179 % of control.

Consider `CNC(=O)O/N=C(\CN=[N+]=[N-])C(C)(C)C`, for which the T/C is 116 % of control (dose: 0.63 mg/kg/injection, schedule: Q04DX003 (sc), vehicle: saline); 71 % of control (dose: 1.25 mg/kg/injection, schedule: Q04DX003 (sc), vehicle: saline); 84 % of control (dose: 2.5 mg/kg/injection, schedule: Q04DX003 (sc), vehicle: saline).

For the compound `N=C(N)c1ccc(Nc2ccc(-c3cc4ccc(C(=N)N)cc4[nH]3)cc2)cc1`, the T/C (dose: 3.75 mg/kg/injection, schedule: Q04DX003 (ip), vehicle: saline) was 84 % of control; the T/C (dose: 7.5 mg/kg/injection, schedule: Q04DX003 (ip), vehicle: saline) is 69 % of control; the T/C (dose: 15.0 mg/kg/injection, schedule: Q04DX003 (ip), vehicle: saline) was 62 % of control.

In the case of `COc1oc(C2C/C(=C/C(C)=C/C(C)=C/C(C)=C/c3ccc([N+](=O)[O-])cc3)CO2)c(C)c(=O)c1C` (stereo not drawn), the T/C by setting is: (dose: 1.0 mg/kg/injection, schedule: Q04DX003 (ip), vehicle: saline) 106 % of control; (dose: 2.0 mg/kg/injection, schedule: Q04DX003 (ip), vehicle: saline) 48 % of control.
